In patent US20250326807A1, “CALPROTECTIN BINDING PEPTIDES” (Buehlmann Laboratories AG, priority 2022, published 2025):
Like-named read-outs stand apart in the source and are kept apart here. Ends that are not written are not given here.

Tests used:
[1] = tested on: human recombinant calprotectin; assay: Fluorescence polarization affinity measurement of fluorescein-labelled peptides; assay type: binding
Experimental: The reaction mixture was incubated at 30° C. for 1 hr, and the completion of the reaction was assessed by LCMS. The reaction was stopped by addition of HCOOH (200 μL) and the cyclized peptide was lyophilized. The final purification was performed as before with a reversed-phase C18 column (X-bridge peptide BEH C18 5 μm, 300 Å, 10×250 mm, Waters) applying a flow rate of 6 mL/min and an appropriate linear gradient in 40 min. Fractions containing the desired peptide were lyophilized. The purity of the peptides was assessed by analysing around 20 μg of peptide by RP-HPLC (1260 HPLC system, Agilent) using a C18 column (ZORBAX 300SB-C18, 5 μm, 300 Å, 4.6×250 mm, Agilent). Peptides were run at a flow rate of 1 mL min^−1 with a linear gradient of 0-100% of solvent B over 15 min (A: 94.9% H2O, 5% ACN and 0.1% TFA; B: 99.9% ACN and 0.1% TFA). The mass was determined by electrospray ionization mass spectrometry (ESI-MS) in positive ion mode on a single quadrupole liquid chromatography mass spectrometer (LCMS-2020, Shimadzu). In order to measure the affinity of selected and synthesized peptides in fluorescence polarization, calprotectin was serially diluted in 20 mM HEPES, 100 mM NaCl, 2 mM CaCl2, pH 7.5, 1 mM DTT with 0.01% v/v Tween-20. 16 μL of protein were added to 4 μL of the fluorescent peptide (20 nM final concentration) in 96-well microtiter plates (black, half-area). Fluorescence anisotropy was measured on a microwell plate reader (Infinite M200Pro, Tecan), with a filter for excitation at 485 nm and emission at 535 nm. Dissociation constant (Kd) was calculated using the following equation on Prism 5 (GraphPad): […]
were A is anisotropy, Af and Ab are the anisotropy values for free and bound ligand, respectively. [L]T is the concentration of total fluorescent ligand and [P]T the concentration of the protein.
Subsequent fluorescence polarization experiments were performed according to example 1.

[2] = target: T1, Calprotectin (Homo sapiens, UniProt P05109+P06702); assay: Sandwich ELISA with biotinylated calprotectin binding peptide and Strep-HRP; details: incubation times of 60 minutes
T1 sequence (P05109 1-93): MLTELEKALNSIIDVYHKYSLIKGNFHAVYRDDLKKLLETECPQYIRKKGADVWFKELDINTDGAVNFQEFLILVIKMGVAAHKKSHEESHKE
T1 sequence (P06702 1-114): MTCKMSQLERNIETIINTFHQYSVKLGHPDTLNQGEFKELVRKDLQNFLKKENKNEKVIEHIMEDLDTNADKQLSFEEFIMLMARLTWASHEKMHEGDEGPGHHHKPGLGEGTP
Experimental: The wells of 96 well Immulon 4 HBX-Extra High Binding plates (Thermo Fisher Scientific) were coated by overnight incubation at 4° C. with 80 μL of a 0.5 μg/mL solution of anti-calprotectin rabbit polyclonal antibody in Na2HCO3 (0.2 M, pH 9.4). The plates were rinsed four times with 200 μL of washing buffer (25 mM Tris, 150 mM NaCl, 2 mM CaCl2, PH 7.4, with 0.05% v/v Tween-20) per well. Then, all the wells were blocked by incubation with 300 μL of blocking buffer (25 mM Tris, 150 mM NaCl, pH 7.4, with 0.05% v/v Tween-20 and 3% w/v BSA) for 1 h at room temperature with shaking. After this time, the blocking buffer was removed and 80 μL of calprotectin was added in dilution buffer (wash buffer with 1% w/v BSA) for 1h at room temperature with shaking. The wells were washed 4 times with washing buffer. […] The solution was removed and the wells were washed 6times with washing buffer. 80 μL of TMB substrate (ready to use solution, SigmaAldrich) were added for 30 minutes and the reaction was stopped with 40 μL of sulfuric acid (2 M). The absorbance was read at 450 nm in a microwell plate reader (Infinite M200Pro, Tecan).

[3] = tested on: Calprotectin; assay: Surface plasmon resonance (Biacore 8K) with immobilized Calprotectin; assay type: binding, human; details: highest concentration tested (500 nM)
Experimental: In order to complement and validate the results obtained by FP, binding responses and kinetics of peptides with immobilized Calprotectin were analysed by SPR. The experiments were performed using a Biacore™ 8K instrument (GE Healthcare). Calprotectin (at 5 μg/mL) was dissolved in 10 mM acetate buffer (pH 5.0) and immobilized on a CM5 series S chip by standard amine coupling method in running buffer (10 mM HEPES pH 7.4, 150 mM NaCl, 2 mM CaCl2, and 0.005% v/v Tween-20) at 25° C. Typical immobilization levels were 3000 resonance units (RUs). Reference cell was treated in the same way but without the injection of protein. A single concentration for each peptide (500 nM) was injected in running buffer (10 mM HEPES pH 7.4, 150 mM NaCl, 2 mM CaCl2, 0.005% v/v Tween-20 and 0.5% v/v DMSO) to measure the binding level. For the measurement of binding kinetics and dissociation constants, five serial dilutions (3-fold) of peptides were prepared in running buffer (with 0.5% DMSO) and analysed in single cycle kinetics mode with the contact and dissociation times of 90 s and 120 s, respectively.
The structure-activity relationship (SAR) analysis of Peptide 3 was assessed by synthesizing a large number of variants of Peptide 3 in which only one amino acid was altered at a time and the binding affinity was measured by surface plasmon resonance (SPR) and fluorescence polarization (FP).

Row | Substance | affinity to recombinant calprotectin (in words) [1] | other results
1 | CTQSPCPLYDSHQCSCK (cyclised or stapled) | excellent binding affinity | 
2 | CQCPWDLFSQHSLSDCCD (cyclised or stapled) | excellent binding affinity | 
3 | Strep-HRP biotinylated peptide complex: linear peptide 3-biotin pre-mixed with streptavidin conjugated horse radish peroxidase (RSPESVAFPMFQSHWYSG; also: biotin, end not given here, non-covalent complex with streptavidin-HRP) |  | detectable calprotectin concentration [2]: below 5 nM
4 | RSPESVAFPMFQSHWYSG [linear peptide 3, fully linear peptide comprising only serines instead of cysteines] |  | affinity to recombinant calprotectin (in words) ([1]; listed as RSPESVAFPMFQSHWYSG): excellent binding affinity; affinity to recombinant calprotectin (in words) ([1]; listed as fully linear peptide): comparable affinities
5 | GCDLAHQPCPLYKCTKCP (cyclised or stapled) | excellent binding affinity | 
6 | SCQCPWDLFSQHSLSDCCD (cyclised or stapled) | excellent binding affinity | 
7 | RCPECVAFPMFQCHWYCG [peptide 3] | excellent binding affinity | SPR signal change [3]: ~40 response units
8 | VCQQTASRCPVWECQRCP (not fully specified; cyclised or stapled) | excellent binding affinity | 
9 | WCTQSPCPLYDSHQCSCK (not fully specified; cyclised or stapled) | excellent binding affinity | 
10 | ACRTCPLFTCPSCG (not fully specified; cyclised or stapled) | excellent binding affinity | 
11 | TCPLNRTQCPLYACTTCP (not fully specified; cyclised or stapled) | excellent binding affinity | 
12 | VCPCPLFRAHGCSRFSCQ (not fully specified; cyclised or stapled) | excellent binding affinity | 
